Key:
[1] = test system: oil field isolated SRB consortium; experiment: Biocidal efficacy (MBC, complete kill) of THPS, NaOPP and THPS/NaOPP against SRB; format: cell-based, Sulfate Reducing Bacteria (SRB); details: alone or in THPS/NaOPP blend, 40° C., 24 hours, 10^6 to 10^7 CFU/mL
Protocol: Inside an anaerobic chamber (Bactron anaerobic chamber), a deaerated sterile salt solution (3.1183 g of NaCl, 1.3082 mg of NaHCO3, 47.70 mg of KCl, 72.00 mg of CaCl2, 54.49 mg of MgSO4, 172.28 mg of Na2SO4, 43.92 mg of Na2CO3 in 1 L water) was contaminated with an oil field isolated SRB consortium, at final bacterial concentrations of 10^6 to 10^7 CFU/mL. The aliquots of this contaminated water were then treated with THPS, NaOPP, or the THPS/NaOPP combinations at different active concentration levels. After the mixtures were incubated at 40° C. for 24 hours, the viable bacteria in the aliquots were detected in culture medium. The biocidal efficacy was determined by minimum tested biocide concentration for a complete bacterial kill in the aliquots (MBC). Table 4 summarizes the efficacy of each biocide and their blends, and the Synergy Index of each combination.

[2] = test system: oil field isolated anaerobic consortium, mainly SRB; experiment: Biocidal efficacy of THPS, NaOPP and THPS/NaOPP against anaerobic bacteria (99.999% reduction); format: cell-based, Sulfate Reducing Bacteria (SRB); details: alone or in THPS/NaOPP blend, 40° C., 24 hour, 10^7 CFU/mL
Protocol: Inside an anaerobic chamber (Bactron anaerobic chamber), a deaerated sterile salt solution (3.1183 g of NaCl, 1.3082 mg of NaHCO3, 47.70 mg of KCl, 72.00 mg of CaCl2, 54.49 mg of MgSO4, 172.28 mg of Na2SO4, 43.92 mg of Na2CO3 in 1 L water) was contaminated with an oil field isolated anaerobic consortium, mainly SRB, at final bacterial concentrations of 10^7 CFU/mL. […] After the mixtures were incubated at 40° C. for 24 hour, the viable bacteria were enumerated using serial dilution method. The biocidal efficacy was determined by minimum tested biocide concentration for 99.999% bacterial reduction in the aliquots.

[3] = test system: Psedomonas aeruginosa ATCC 10145 and Staphylococcus aureus ATCC 6538; experiment: Biocidal efficacy of THPS, NaOPP and THPS/NaOPP against aerobic bacteria (99.999% reduction); format: cell-based; details: alone or in THPS/NaOPP blend, PBS buffer (pH7), 37° C., 24 hour
Protocol: A PBS buffer (pH7) was contaminated with Psedomonas aeruginosa ATCC 10145 and Staphylococcus aureus ATCC 6538 at final bacterial concentration of −10^6 CFU/ml. […] After the mixtures were incubated at 37° C. for 24 hour, the viable bacteria were enumerated using serial dilution method. The biocidal efficacy was determined by minimum tested biocide concentration for 99.999% bacterial reduction in the aliquots.

[4] = test system: oil field isolated anaerobic SRB consortium; experiment: Biocidal efficacy of THPS, DXN and THPS/DXN against SRB (99.99% reduction in 24 hours); format: cell-based, Sulfate Reducing Bacteria (SRB); details: alone or in THPS/DXN blend, 40° C., 10^6 to 10^7 CFU/mL
Protocol: Inside an anaerobic chamber (Bactron III), a deaerated sterile salt solution (3.1183 g of NaCl, 1.3082 mg of NaHCO3, 47.70 mg of KCl, 72.00 mg of CaCl2, 54.49 mg of MgSO4, 172.28 mg of Na2SO4, 43.92 mg of Na2CO3 in 1 L water) was contaminated with an oil field isolated anaerobic SRB consortium at final bacterial concentrations of 10^6 to 10^7 CFU/mL. The aliquots of this contaminated water were then treated with THPS, DXN, or the THPS/DXN combinations at different active concentration levels. After the mixtures were incubated at 40° C. for 24 hour, the viable bacterial number were enumerated using a serial dilution method and the biocidal efficacy was determined by the biocide dosage required for 99.99% bacterial reduction in 24 hours. Synergy Index was then calculated. Table 3 summarizes the efficacy of each biocide and their blends, and the Synergy Index of each combination.
(§1) A Synergy Index less than 1 indicates synergy.

[5] = test system: oil field isolated anaerobic consortium, mainly SRB; experiment: Biocidal efficacy (MBC, complete kill) of THPS, HHT and THPS/HHT against SRB, 40° C., 24 hour; format: cell-based, Sulfate Reducing Bacteria (SRB); details: alone or in THPS/HHT blend, 10^6 to 10^7 CFU/mL
Protocol: Inside an anaerobic chamber (Bactron anaerobic chamber), a deaerated sterile salt solution (3.1183 g of NaCl, 1.3082 mg of NaHCO3, 47.70 mg of KCl, 72.00 mg of CaCl2, 54.49 mg of MgSO4, 172.28 mg of Na2SO4, 43.92 mg of Na2CO3 in 1 L water) was contaminated with an oil field isolated anaerobic consortium, mainly SRB, at final bacterial concentrations of 10^6 to 10^7 CFU/mL. The aliquots of this contaminated water were then treated with THPS and hexahydro-1,3,5-tris(2-hydroxyethyl)-s-triazine (HHT), or the THPS/HHT combination at different active concentration levels. […] Table 1 summarizes the efficacy of each biocide and their blend, and the Synergy Index*^1 of each combination. *^1Synergy Index=Ca/CA+Cb/CB
• Ca: Concentration of biocide A required to achieve a complete bacterial kill when used in combination with Biocide B • CA: Concentration of biocide A required to achieve a complete bacterial kill when used alone • Cb: Concentration of biocide B required to achieve a complete bacterial kill when used in combination with Biocide A • CB: Concentration of biocide B required to achieve a complete bacterial kill when used alone A Synergy Index less than 1 indicates synergy.

oilfield SRB consortium = experiment: Biocidal efficacy of THPS/HHT against anaerobic bacteria in a high temperature and sulfide-rich environment; format: cell-based, Sulfate Reducing Bacteria (SRB); details: alone or in THPS/HHT blend, 80° C., 7 days, daily challenge of SRB and 10 ppm sulfide
Protocol: Inside an anaerobic chamber (BACTRON IV), biocides solutions were challenged with 10^4 to 10^5 CFU/mL of an oilfield SRB consortium and 10 ppm sulfide ion (added in the form of sodium sulfide). The biocide solutions were then incubated at 80° C. under anaerobic condition for 7 days, with daily challenge of the SRB consortium (10^4 to 10^5 CFU/mL) and sulfide ion (10 ppm). The biocidal efficacy was determined by selecting the lowest testing biocide dosage required for 99.999% or complete bacterial kill after both 2 hours and 7 days of heat, SRB and sulfide exposure. Synergy Index was then calculated. Table 2 summarizes the efficacy of each biocide and their blend, and the Synergy Index of each combination.
as §1

[Na+].[O-]c1ccccc1-c1ccccc1 [NaOPP, sodium o-phenylphenylate]
Average MBC NaOPP ([1]; NaOPP concentration for complete bacterial kill): 333.3 active ppm | Concentration required for 99.999% bacterial reduction, NaOPP ([2]; NaOPP): 303.8 ppm active | Concentration required for 99.999% bacterial reduction, NaOPP ([3]; NaOPP): 202.5 ppm active

CC(=O)OC1CC(C)OC(C)O1 (stereo not drawn) [DXN, 2,6-dimethyl-1,3-dioxan-4-yl acetate]
Dosage required for 99.99% bacterial reduction, DXN ([4]; DXN): 330.9 active ppm

tetrakis(hydroxymethyl)phosphonium sulfate [THPS]
Average MBC THPS ([5]; THPS concentration for complete bacteria kill): 6.1 active ppm | Dosage required for 99.999% or complete bacterial kill of both 2 h and 7 day heat, SRB, and sulfide exposure, THPS (oilfield SRB consortium; THPS): 88.9 active ppm | Dosage required for 99.99% bacterial reduction, THPS ([4]; THPS): 5.5 active ppm | Average MBC THPS ([1]; THPS concentration for complete bacterial kill): 7.9 active ppm | Concentration required for 99.999% bacterial reduction, THPS ([2]; THPS): 11.9 ppm active | Concentration required for 99.999% bacterial reduction, THPS ([3]; THPS): 26.7 ppm active

OCCN1CN(CCO)CN(CCO)C1 [HHT, hexahydro-1,3,5-tris(2-hydroxyethyl)-s-triazine]
Average MBC HHT ([5]; HHT concentration for complete bacteria kill): 79.0 active ppm | Dosage required for 99.999% or complete bacterial kill of both 2 h and 7 day heat, SRB, and sulfide exposure, HHT (oilfield SRB consortium; HHT): 133.3 active ppm

From patent US9290710B2, “Synergistic antimicrobial composition” (Dow Global Technologies LLC, priority 2009, dated 2016)
